{"source": "patent US7235267B1", "about": "“Brain cell or nerve cell-protecting agents comprising medicinal ginseng” (priority 1999, dated 2007)", "key": {"[1]": {"tested_on": "SH-SP rats with MCA permanent occlusion", "assay": "Cerebral infarct lesion and brain edema after ginsenoside Rb1 (intravenous or intracerebroventricular)", "format": "in vivo, rat", "settings": "intravenous 6 μg/day for 28 days after MCA permanent occlusion", "method": "Male SH-SP rats, at the age of 12-13 weeks, were used. Animals were bred in a room furnished with 12 hours light and dark cycles and water and feeds were supplied ad libitum. The cortical branch of the left middle cerebral artery (MCA) of SH-SP rats were coagulated and cut under inhalation anesthesia. Immediately after MCA permanent occlusion, ginsenoside Rb1 dissolved in physiological saline was infused once intravenously (6 μg or 60 μg), subsequently intravenously infused continuously for 28 days by using an Alza osmotic minipump (6 μg/day or 60 μg/day).\nAt 32 days after MCA permanent occlusion, the SH-SP rats were anesthetized with chloral hydrate, and they were perfused and fixed transcardially with 0.1 mole phosphate buffer containing 4% paraformaldehyde. The brains were dissected out and cerebrocortical infarct lesions were photographed.\nIn Japanese Patent Application No. Hei 10-365560, PCT/JP99/02550 (Brain cell or nerve cell-protective agents comprising ginsenoside Rb1), Japanese Patent Application No. Hei 11-340850, PCT/JP99/06804 (Cerebrovascular regeneration/reconstruction promoters and nerve tissue secondary degeneration inhibitors comprising ginsenoside Rb1), the present inventors (Sakanaka and Tanaka) measured areas of the left cerebral hemispheres and the left cerebrocortical infarct lesions on the photographs by using an image analyzer. […]"}, "[2]": {"tested_on": "Bcl-xL mRNA", "assay": "RT-PCR of Bcl-xL mRNA in cerebral cortex after intravenous ginsenoside Rb1", "format": "in vivo, rat", "settings": "intravenous 60 μg/day; 4th and 6th hour after MCA permanent occlusion; vs sham and saline", "method": "The present inventors investigated whether or not intravenous administration of low doses of ginsenoside Rb1 increases expression of Bcl-xL mRNA in brain tissues. For this purpose, for example, SH-SP rats (body weight 250-300 g), at the age of 12 weeks, were used. Immediately after permanent occlusion of the MCA in SH-SP rats under inhalation anesthesia, ginsenoside Rb1 dissolved in physiological saline was infused once intravenously (60 μg), and subsequently ginsenoside Rb1 was intravenously infused continuously at the dose of 60 μg/day. Control animals with MCA permanent occlusion and sham-operated animals received the same amount of physiological saline after MCA permanent occlusion.\nGroup 2 consists of animals with the same experimental conditions. Sham indicates sham-operated animals; Rb1(−) indicates animals with cerebral infarction administered with physiological saline; and Rb1(+) indicates animals with cerebral infarction administered intravenously with ginsenoside Rb1. At the 4th hour or the 6th hour after the sham operation and MCA permanent occlusion, animals were anesthetized with chloral hydrate, and the left cerebral cortex (i.e. the cerebral cortex on the side of MCA permanent occlusion) was dissected out and total RNA was prepared for RT-PCR. The mRNA of β-actin was used as the internal standard. […]"}, "[3]": {"settings": "intravenously administered small amount (prior application); cited from earlier work"}}}
{"smiles": "CC(C)=CCC[C@](C)(O[C@@H]1O[C@H](CO[C@@H]2O[C@H](CO)[C@@H](O)[C@H](O)[C@H]2O)[C@@H](O)[C@H](O)[C@H]1O)[C@H]1CC[C@]2(C)[C@@H]1[C@H](O)C[C@@H]1[C@@]3(C)CC[C@H](O[C@@H]4O[C@H](CO)[C@@H](O)[C@H](O)[C@H]4O[C@@H]4O[C@H](CO)[C@@H](O)[C@H](O)[C@H]4O)C(C)(C)[C@@H]3CC[C@]12C", "note": "[ginsenoside Rb1]", "values": [{"measurement": "difference in size between left and right cerebral hemisphere (brain edema)", "setting": "[1]", "value": "no difference in size"}, {"measurement": "cerebral infarct lesions (photographs at 32 days)", "setting": "[1]; all 8 cases", "value": "obviously reduced"}, {"measurement": "expressions of Bcl-xL mRNA in the cerebral cortex", "setting": "[2]", "value": "obviously increased"}, {"measurement": "transfer into the brain and nervous systems", "setting": "[3]", "value": "transferred quickly"}]}
